From patent US8420679B2, “Aminothiazole derivatives and their use as CRF receptor ligands” (Sanofi, priority 1999, dated 2013)
Counter-ions that a name gives are not always drawn.

Row | melting point [°C] | Structure (SMILES)
1 | 70 | C=CCN(c1nc(-c2ccc(OC)cc2Cl)c(C)s1)C(COC)c1ccccc1 (centres unmarked) (as salt: hydrochloride) (hydrate or solvate) [Example 23, Allyl-[4-(2-chloro-4-methoxyphenyl)-5-methylthiazol-2-yl]-(2-methoxy-1-phenylethyl)amine]
2 | 70 | CC#CCN(c1nc(-c2ccc(OC)cc2Cl)c(C)s1)C(COC)c1ccccc1 (centres unmarked) (as salt: hydrochloride) (hydrate or solvate) [Example 24, But-2-ynyl-[4-(2-chloro-4-methoxyphenyl)-5-methylthiazol-2-yl]-[2-methoxy-1-phenylethyl]amine]
